Here are results for eleven compounds from patent US5698691A, “Condensed cyclic compounds and their use” (Takeda Chemical Industries, Ltd., priority 1993, dated 1997).

As usually defined, the IC50 is the midpoint of a concentration-inhibition curve. Read a high IC50 as a need for much substance.

The experiment has as its target T1, squalene synthetase (Rattus norvegicus, UniProt Q02769).
T1 construct: from tissue; host or cells: rat liver microsome fraction (SD male rat, 6 weeks old)
T1 sequence (Q02769 1-416): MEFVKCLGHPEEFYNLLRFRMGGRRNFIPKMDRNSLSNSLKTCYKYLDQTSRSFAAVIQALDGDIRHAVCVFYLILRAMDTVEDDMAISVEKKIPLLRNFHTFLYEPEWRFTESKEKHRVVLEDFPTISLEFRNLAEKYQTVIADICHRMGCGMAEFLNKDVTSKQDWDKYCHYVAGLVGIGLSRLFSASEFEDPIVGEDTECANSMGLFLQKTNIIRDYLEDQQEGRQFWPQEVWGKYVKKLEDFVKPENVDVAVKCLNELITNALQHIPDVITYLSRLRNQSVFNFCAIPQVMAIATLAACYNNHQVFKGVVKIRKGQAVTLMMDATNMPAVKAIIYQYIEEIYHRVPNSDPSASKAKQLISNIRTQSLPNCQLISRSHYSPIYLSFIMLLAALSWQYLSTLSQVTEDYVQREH
Briefly: Squalene synthetase inhibitory activity, rat-derived enzyme (liver microsome fraction). The format is biochemical. The conditions noted are these: SD rat liver microsome fraction; 5 uM [1-3H] farnesyl pyrophosphate, 37° C., 45 minutes. As to the method:
Assay Method of Squalene Synthetase Inhibitory Activity
The squalene synthetase inhibitory activity was assayed as follows with the enzyme solutions described in the subsequent Experimental Examples 1 and 2.
More specifically, an enzyme solution (protein content 0.8 ug) prepared in Experimental Example 1 or 2 was added to a solution (total volume 50 μl)) containing 5 uM [1-^3 H] farnesyl pyrophosphate (specific activity 25 uCi/mole), 1 mM NADPH, 5 mM MgCl2, 6 mM glutathione, a 100 mM buffer solution of potassium phosphate (pH 7.4) and a test drug (used as an aqueous solution or a DMSO solution), then the reaction was allowed to proceed at 37° C. for 45 minutes. To the reaction mixture was added 150 μl of a mixture of chloroform and methanol (1:2) to suspend the reaction, followed by adding 50 μl of chloroform and 50 μl of a 3N aqueous solution of sodium hydroxide. 50 μl of the chloroform layer (lower layer) containing the reaction mixture having squalene as the principal component and 3 ml of toluene-based liquid scintillator were mixed, and its radioactivity was determined by means of a liquid scintillation counter.
The squalene synthetase inhibitory activity was expressed in terms of the concentration inhibiting by 50% the radioactivity taken into the chloroform layer (IC50, molar concentration (M)).
An SD male rat (6 week old) was killed by bleeding, and its liver was excised. About 10 g of the liver was washed with a saline solution cooled with ice, which was then homogenized in 15 ml of an ice-cooled buffer solution [100 mM potassium phosphate (pH 7.4), 15 mM nicotinamide, 2 mM MgCl2 ], followed by centrifugation for 20 minutes (4° C.) with 10000×g. The supernatant layer was separated and subjected to further centrifugation for 90 minutes (4° C.) at 105000×g. The sediment was then suspended in an ice-cooled 100 mM phosphate buffer solution (pH 7.4), which was again subjected to centrifugation for 90 minutes (4° C.) at 105000×g. The sediment thus obtained (microsome fraction) was suspended in an ice-cooled 100 mM potassium phosphate buffer (pH 7.4) (about 40 mg/ml protein concentration, determined with BCA protein assay kit of Pias Co., Ltd.). This suspension was used as the enzyme solution.
Turning to `CN1C(=O)[C@@H](CC(=O)O)S[C@H](c2ccccc2Cl)c2cc(Cl)ccc21` (relative stereo) [Example 10-3], the IC50 amounted to 0.92 µM. That is a sub-micromolar value.
The same measure for `CCN1C(=O)[C@@H](CC(=O)O)S[C@H](c2ccccc2Cl)c2cc(Cl)ccc21` (relative stereo) [Example 10-4]: 0.1 µM; for `CC(C)(C)CN1C(=O)[C@@H](CC(=O)O)[S+]([O-])[C@H](c2ccccc2Cl)c2cc(Cl)ccc21` (relative stereo) [Example 19, 3,5-trans-7-Chloro-5-(2-chlorophenyl)-1-neopentyl-2-oxo-1,2,3,5-tetrahydro-4,1-benzothiazepine-3-acetic acid S-oxide]: 0.7 µM.
`CC(C)(C)CN1C(=O)[C@@H](CC(=O)O)S(=O)(=O)[C@H](c2ccccc2Cl)c2cc(Cl)ccc21` (relative stereo) [Example 21, 3,5-trans-7-Chloro-5-(2-chlorophenyl)-1-neopentyl-2-oxo-1,2,3,5-tetrahydro-4,1-benzothiazepine-3-acetic acid S-dioxide] returned an IC50 of 3.3 µM.
The same measure for `CC(C)(C)CN1C(=S)[C@@H](CC(=O)O)O[C@H](c2ccccc2Cl)c2cc(Cl)ccc21` (relative stereo) [Example 28, 3,5-trans-7-Chloro-5-(2-chlorophenyl)-1-neopentyl-1,2,3,4-tetrahydro-2-thioxo-4,1-benzoxazepine-3-acetic acid]: 0.46 µM.
The figure for `CC(C)(C)CN1C(=O)[C@@H](CC(=O)O)O[C@H](c2ccccc2Cl)c2cc(Cl)sc21` (relative stereo) [Example 31, 3,5-trans-7-Chloro-5-(2-chlorophenyl)-1-neopentyl-2-oxo-1,2,3,5-tetrahydro-4,1-thieno[2,3-e]benzoxazepine-3-acetic acid] is 0.17 µM; for `COc1ccccc1[C@H]1O[C@@H](CC(=O)O)C(=O)N(CC(C)(C)C)c2sc(Cl)cc21` (relative stereo) [Example 34, 3,5-cis-7-Chloro-5-(2-methoxyphenyl)-1-neopentyl-2-oxo-1,2,3,5-tetrahydro-4,1-thieno[2,3-e]oxazepine-3-acetic acid] it is over 1 µM.
For the compound `COc1ccccc1[C@H]1O[C@H](CC(=O)O)C(=O)N(CC(C)C)c2sc(Cl)cc21` (relative stereo) [Example 36, 3,5-trans-7-Chloro-1-isobutyl-5-(2-methoxyphenyl)-2-oxo-1,2,3,5-tetrahydro-4,1-thieno[2,3-e]oxazepine-3-acetic acid], half-maximal inhibition (IC50) required 0.49 µM.
`CC(C)CN1C(=O)[C@@H](CC(=O)O)N=C(c2ccccc2Cl)c2cc(Cl)ccc21` [Example 13, (3R)-1-Isobutyl-7-chloro-5-(2-chlorophenyl)-2,3-dihydro-2-oxo-1H-1,4-benzodiazepine-3-acetic acid] yielded an IC50 of 3.9 µM. This IC50 lies about 8-fold higher than the previous one.
The same measure for `COc1cccc([C@@H]2S[C@@H](CC(=O)O)C(=O)N(CC(C)(C)C)c3ccc(Cl)cc32)c1OC` [Example 44, (3S,5R)-7-Chloro-5-(2,3-dimethoxyphenyl)-1-neopentyl-2-oxo-1,2,3,5-tetrahydro-4,1-benzothiazepine-3-acetic acid]: 0.96 µM; for `COc1ccc([C@@H]2S[C@@H](CC(=O)O)C(=O)N(CC(C)(C)C)c3ccc(Cl)cc32)c(OC)c1` [Example 50, (3S,5R)-7-Chloro-5-(2,4-dimethoxyphenyl)-1-neopentyl-2-oxo-1,2,3,5-tetrahydro-4,1-benzothiazepine-3-acetic acid]: over 1 µM.
